The values below come from patent publication US10377753B2, “Substituted 4-azaindoles and their use as GluN2B receptor modulators” (Janssen Pharmaceutica NV, priority 2015, dated 2019).

Structures are written as SMILES. Counter-ions that a name gives are not always drawn.

The assay has as its target cloned human NR1/NR2B ion channels (Homo sapiens (Human), UniProt Q05586+Q13224). In words: HNR2BC: effects of test articles on cloned human NR1/NR2B ion channels expressed in mammalian cells (FLIPR calcium flux). The conditions noted are these: Table 5. Type of assay: cell-based. The gist of the method:
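In a stable Tet-On-induced cell line expressing human GluN1/GluN2B, Calcium 5-loaded cells were preincubated 5 min with compound, then stimulated 5 min with glutamate at ~EC80 plus 10 μM glycine, in pH 7.4 HEPES buffer. FLIPR calcium fluorescence was normalized to control wells.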
A general note: Calcium flux is commonly read through the fluorescence of an indicator in the cells.

The mark [1] stands for this setting: cloned human NR1/NR2B ion channels.

Sequence of cloned human NR1/NR2B ion channels (Q13224 27-1484, other chains not shown): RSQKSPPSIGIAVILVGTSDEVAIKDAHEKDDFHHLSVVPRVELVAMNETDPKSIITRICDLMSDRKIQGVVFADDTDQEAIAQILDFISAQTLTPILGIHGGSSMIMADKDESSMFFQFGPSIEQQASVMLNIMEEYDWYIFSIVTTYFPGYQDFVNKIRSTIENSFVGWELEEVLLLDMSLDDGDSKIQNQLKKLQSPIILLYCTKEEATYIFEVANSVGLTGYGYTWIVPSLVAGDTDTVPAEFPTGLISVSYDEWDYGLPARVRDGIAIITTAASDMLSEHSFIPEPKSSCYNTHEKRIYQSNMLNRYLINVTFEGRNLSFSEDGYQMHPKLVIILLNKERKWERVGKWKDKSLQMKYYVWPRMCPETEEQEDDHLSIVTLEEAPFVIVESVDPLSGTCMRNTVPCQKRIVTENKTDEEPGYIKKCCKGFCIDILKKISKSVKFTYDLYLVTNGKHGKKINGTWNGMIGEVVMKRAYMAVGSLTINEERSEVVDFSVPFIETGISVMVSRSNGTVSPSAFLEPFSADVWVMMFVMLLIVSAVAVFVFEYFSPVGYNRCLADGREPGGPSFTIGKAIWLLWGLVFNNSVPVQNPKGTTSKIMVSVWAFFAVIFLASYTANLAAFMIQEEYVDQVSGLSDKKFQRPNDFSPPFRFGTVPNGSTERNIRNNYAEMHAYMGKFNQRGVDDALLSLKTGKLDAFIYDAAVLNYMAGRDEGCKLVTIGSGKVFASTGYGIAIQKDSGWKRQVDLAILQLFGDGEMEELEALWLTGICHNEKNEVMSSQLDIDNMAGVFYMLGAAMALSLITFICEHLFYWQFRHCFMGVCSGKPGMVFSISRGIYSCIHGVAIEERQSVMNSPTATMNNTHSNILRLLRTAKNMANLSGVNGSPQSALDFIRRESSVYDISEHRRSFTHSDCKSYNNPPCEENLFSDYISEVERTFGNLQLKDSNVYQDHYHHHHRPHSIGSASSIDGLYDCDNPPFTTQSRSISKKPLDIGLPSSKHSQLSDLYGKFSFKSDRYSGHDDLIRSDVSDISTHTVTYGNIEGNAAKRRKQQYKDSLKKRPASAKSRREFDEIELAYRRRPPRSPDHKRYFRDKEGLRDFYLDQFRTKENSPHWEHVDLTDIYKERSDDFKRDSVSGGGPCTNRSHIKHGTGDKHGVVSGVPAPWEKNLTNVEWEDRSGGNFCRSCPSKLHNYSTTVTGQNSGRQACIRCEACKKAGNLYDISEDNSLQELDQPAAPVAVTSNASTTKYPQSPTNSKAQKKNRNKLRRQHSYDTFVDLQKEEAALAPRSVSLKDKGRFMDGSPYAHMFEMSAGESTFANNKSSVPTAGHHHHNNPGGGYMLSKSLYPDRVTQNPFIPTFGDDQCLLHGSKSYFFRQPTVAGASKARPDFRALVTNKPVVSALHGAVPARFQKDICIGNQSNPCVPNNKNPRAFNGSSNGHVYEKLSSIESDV

Turning to `O=C(Cn1ccc2ncc(-c3cccc(C(F)F)c3)cc21)N1CCC1` [Example 446, 1-(Azetidin-1-yl)-2-[6-[3-(difluoromethyl)phenyl]pyrrolo[3,2-b]pyridin-1-yl]ethanone], the IC50 under setting [1] was 100 nM.
On the same count and under the same terms, the result for `O=C(Cn1cc(F)c2ncc(-c3cccc(C(F)(F)F)c3F)cc21)N1CC(F)C1` [Example 485, 1-(3-Fluoroazetidin-1-yl)-2-[3-fluoro-6-[2-fluoro-3-(trifluoromethyl)phenyl]pyrrolo[3,2-b]pyridin-1-yl]ethanone] reads 39.8 nM.
`Cc1cc(C)cc(-c2cnc3c(Cl)cn(CC(=O)N4CCC4)c3c2)c1` [Example 303, 1-(Azetidin-1-yl)-2-[3-chloro-6-(3,5-dimethylphenyl)pyrrolo[3,2-b]pyridin-1-yl]ethanone]: the IC50 (cloned human NR1/NR2B) is 39.8 nM.
Still for that read-out and setting: as for `Cc1cccc(-c2cnc3ccn(CC(=O)N4CCCC4)c3c2)c1` [Example 81, 2-[6-(m-Tolyl)pyrrolo[3,2-b]pyridin-1-yl]-1-pyrrolidin-1-yl-ethanone], the figure is 316 nM.
With `CCc1cccc(-c2cnc3c(Cl)cn(CC(=O)N4CC(F)C4)c3c2)c1` [Example 542, 2-[3-Chloro-6-(3-ethylphenyl)pyrrolo[3,2-b]pyridin-1-yl]-1-(3-fluoroazetidin-1-yl)ethanone], the IC50 under setting [1] is 31.6 nM.
Same read-out and setting: as for `CN(C)C(=O)Cn1cc(Cl)c2ncc(-c3cccc(C(F)(F)F)c3)cc21` [Example 600, 2-[3-Chloro-6-[3-(trifluoromethyl)phenyl]pyrrolo[3,2-b]pyridin-1-yl]-N,N-dimethyl-acetamide], the figure is 79.4 nM.
Turning to `O=C(Cn1cc(Cl)c2ncc(-c3ccc(F)cc3)cc21)N1CCOCC1` [Example 7, 2-[3-Chloro-6-(4-fluorophenyl)pyrrolo[3,2-b]pyridin-1-yl]-1-morpholino-ethanone], the IC50 (cloned human NR1/NR2B) was 158 nM.
Same read-out and setting: as for `O=C(Cn1cc(Cl)c2ncc(-c3ccc(F)c(F)c3F)cc21)N1CCC1` [Example 312, 1-(Azetidin-1-yl)-2-[3-chloro-6-(2,3,4-trifluorophenyl)pyrrolo[3,2-b]pyridin-1-yl]ethanone], the figure is 158 nM.
As to `CN(C)C(=O)Cn1ccc2ncc(-c3cc(F)cc(F)c3)cc21` [Example 376, 2-[6-(3,5-Difluorophenyl)pyrrolo[3,2-b]pyridin-1-yl]-N,N-dimethyl-acetamide], the IC50 under setting [1] was 20 nM.
For the molecule `O=C(Cn1cc(Cl)c2ncc(-c3ccccc3)cc21)N1CCC1` [Example 6, 1-(Azetidin-1-yl)-2-(3-chloro-6-phenyl-pyrrolo[3,2-b]pyridin-1-yl)ethanone], the IC50 (cloned human NR1/NR2B) is 50.1 nM.
For `O=C(Cn1ccc2ncc(-c3cc(F)cc(F)c3)cc21)N1CCOCC1` [Example 125, 2-[6-(3,5-Difluorophenyl)pyrrolo[3,2-b]pyridin-1-yl]-1-morpholino-ethanone], the IC50 (cloned human NR1/NR2B) was 31.6 nM.
On the same count and under the same terms, as for `O=C1CCN(C(=O)Cn2ccc3ncc(-c4ccc(F)cc4)cc32)C1` [Example 216, 1-[2-[6-(4-Fluorophenyl)pyrrolo[3,2-b]pyridin-1-yl]acetyl]pyrrolidin-3-one trifluoroacetate salt], the figure is 1260 nM.
With `Cc1cc(-c2cnc3c(C)cn(CC(=O)N4CC(F)(F)C4)c3c2)ccc1F` [Example 618, 1-(3,3-Difluoroazetidin-1-yl)-2-[6-(4-fluoro-3-methyl-phenyl)-3-methyl-pyrrolo[3,2-b]pyridin-1-yl]ethanone], under setting [1], the IC50 is 31.6 nM.
For `Cc1cn(CC(=O)N2CC(F)C2)c2cc(-c3ccc(Cl)s3)cnc12` [Example 636, 2-[6-(5-Chloro-2-thienyl)-3-methyl-pyrrolo[3,2-b]pyridin-1-yl]-1-(3-fluoroazetidin-1-yl)ethanone], the IC50 under setting [1] is 158 nM.
The same measure, in the same setting: as for `CCN(C)C(=O)Cn1cc(C)c2ncc(-c3ccc(F)c(F)c3)cc21` [Example 620, 2-[6-(3,4-Difluorophenyl)-3-methyl-pyrrolo[3,2-b]pyridin-1-yl]-N-ethyl-N-methyl-acetamide], the figure is 25.1 nM; as for `Cc1cn(CC(=O)N2CC(F)(F)C2)c2cc(-c3ccccc3F)cnc12` [Example 597, 1-(3,3-Difluoroazetidin-1-yl)-2-[6-(2-fluorophenyl)-3-methyl-pyrrolo[3,2-b]pyridin-1-yl]ethanone], 316 nM.
Consider `Cc1cc(-c2cnc3ccn(CC(=O)N4CCOC(C)(C)C4)c3c2)ccc1F` [Example 197, 1-(2,2-Dimethylmorpholin-4-yl)-2-[6-(4-fluoro-3-methyl-phenyl)pyrrolo[3,2-b]pyridin-1-yl]ethanone trifluoroacetate salt], for which the IC50 (cloned human NR1/NR2B) is 1580 nM.
For the molecule `Cc1cc(-c2cnc3c(F)cn(CC(=O)N4CCOCC4)c3c2)ccc1F` [Example 304, 2-[3-Fluoro-6-(4-fluoro-3-methyl-phenyl)pyrrolo[3,2-b]pyridin-1-yl]-1-morpholino-ethanone], for the setting “cloned human NR1/NR2B”, the half-maximal inhibitory concentration (IC50) is 158 nM.
Consider `CCc1ccc(-c2cnc3ccn(CC(=O)N4CCC4)c3c2)s1` [Example 392, 1-(Azetidin-1-yl)-2-[6-(5-ethyl-2-thienyl)pyrrolo[3,2-b]pyridin-1-yl]ethanone trifluoroacetate salt], for which the IC50 under setting [1] was 63.1 nM.
In the case of `CCN(C)C(=O)Cn1cc(C)c2ncc(-c3cccc(C)c3F)cc21` [Example 560, N-Ethyl-2-[6-(2-fluoro-3-methyl-phenyl)-3-methyl-pyrrolo[3,2-b]pyridin-1-yl]-N-methyl-acetamide], the IC50 under setting [1] is 794 nM.
Still for that read-out and setting: as for `Cc1cc(-c2cnc3c(C)cn(CC(=O)N4CCCC4)c3c2)ccc1F` [Example 616, 2-[6-(4-Fluoro-3-methyl-phenyl)-3-methyl-pyrrolo[3,2-b]pyridin-1-yl]-1-pyrrolidin-1-yl-ethanone], the figure is 31.6 nM; as for `Cc1c(F)ccc(-c2cnc3c(F)cn(CC(=O)N4CCC4)c3c2)c1F` [Example 480, 1-(Azetidin-1-yl)-2-[6-(2,4-difluoro-3-methyl-phenyl)-3-fluoro-pyrrolo[3,2-b]pyridin-1-yl]ethanone], 39.8 nM; as for `Cc1cccc(-c2cnc3c(Cl)cn(CC(=O)N4CCC4)c3c2)c1F` [Example 522, 1-(Azetidin-1-yl)-2-[3-chloro-6-(2-fluoro-3-methyl-phenyl)pyrrolo[3,2-b]pyridin-1-yl]ethanone], 79.4 nM.
Regarding `Cc1csc(-c2cnc3c(F)cn(CC(=O)N(C)C)c3c2)c1` [Example 96, 2-[3-Fluoro-6-(4-methyl-2-thienyl)pyrrolo[3,2-b]pyridin-1-yl]-N,N-dimethyl-acetamide], where the note is “cloned human NR1/NR2B”, the IC50 was 50.1 nM.
In the case of `O=C(Cn1ccc2ncc(-c3cc(F)c(F)c(F)c3)cc21)N1CCOCC1` [Example 127, 1-Morpholino-2-[6-(3,4,5-trifluorophenyl)pyrrolo[3,2-b]pyridin-1-yl]ethanone], the IC50 (cloned human NR1/NR2B) was 158 nM.
The same measure, in the same setting: the result for `CCCNC(=O)Cn1ccc2ncc(-c3ccc(F)cc3)cc21` [Example 230, 2-[6-(4-Fluorophenyl)pyrrolo[3,2-b]pyridin-1-yl]-N-propyl-acetamide] reads 5010 nM; that for `Cc1cc(-c2cnc3ccn(CC(=O)NC4CCC4)c3c2)ccc1F` [Example 66, N-Cyclobutyl-2-[6-(4-fluoro-3-methyl-phenyl)pyrrolo[3,2-b]pyridin-1-yl]acetamide trifluoroacetate salt], 200 nM.
As to `CCN(C)C(=O)Cn1cc(C)c2ncc(-c3ccc(F)cc3)cc21` [Example 559, N-Ethyl-2-[6-(4-fluorophenyl)-3-methyl-pyrrolo[3,2-b]pyridin-1-yl]-N-methyl-acetamide], under setting [1], the IC50 is 158 nM.

What is called IC50 is the concentration that inhibits the measured activity by half.
